HELM strings list units from the 5' end as sugar, base in round brackets, then linkage (d deoxyribose, r ribose, m 2'-O-methyl, p phosphodiester). Strings are as the collection lists them; they lack the last nucleoside at the 3' end of the tested compound. [moe] = 2'-O-(2-methoxyethyl) (MOE); [sp] = phosphorothioate linkage; [m5C] = 5-methylcytosine

The values below come from the OligoGym collection.

This series has as its target C9ORF72. As to the kind of experiment: mouse, dose not given. The note with it: ASO.
As to “RNA1{[moe]([m5C])[sp].[moe]([m5C])p.[moe]([m5C])p.[moe]([m5C])p.[moe](T)p.[moe](A)[sp].d(G)[sp].d([m5C])[sp].d(G)[sp].d([m5C])[sp].d(G)[sp].d([m5C])[sp].d(G)[sp].d(A)[sp].[moe]([m5C])p.[moe](T)[sp].[moe]([m5C])}$$$$ (last 3' nucleoside missing)”, the 3 h FOB score was 2 score 0-7.

“RNA1{[moe]([m5C])[sp].[moe]([m5C])p.[moe](G)p.[moe](G)p.[moe]([m5C])p.[moe]([m5C])p.[moe]([m5C])p.d([m5C])[sp].d(T)[sp].d(A)[sp].d(G)[sp].d([m5C])[sp].d(G)[sp].d([m5C])[sp].d(G)[sp].d([m5C])[sp].d(G)[sp].[moe](A)[sp].[moe]([m5C])}$$$$ (last 3' nucleoside missing)” came in with a 3 h FOB score of 2 score 0-7. For “RNA1{[moe]([m5C])[sp].[moe](A)p.[moe](G)p.[moe](G)p.d([m5C])[sp].d(T)[sp].d(G)[sp].d([m5C])[sp].d(G)[sp].d(G)[sp].d(T)[sp].d(T)[sp].d(G)[sp].[moe](T)p.[moe](T)p.[moe](T)p.[moe]([m5C])[sp].[moe]([m5C])}$$$$ (last 3' nucleoside missing)” the value was 4 score 0-7; for “RNA1{[moe](G)[sp].[moe](G)p.[moe]([m5C])p.[moe]([m5C])p.d([m5C])[sp].d([m5C])[sp].d(T)[sp].d(A)[sp].d(G)[sp].d([m5C])[sp].d(G)[sp].d([m5C])[sp].d(G)[sp].d([m5C])[sp].[moe](G)p.[moe](A)p.[moe]([m5C])p.[moe](T)[sp].[moe]([m5C])}$$$$ (last 3' nucleoside missing)”, 1.5 score 0-7; for “RNA1{[moe]([m5C])[sp].[moe](G)p.[moe](G)p.[moe]([m5C])p.[moe]([m5C])p.[moe]([m5C])p.d([m5C])[sp].d(T)[sp].d(A)[sp].d(G)[sp].d([m5C])[sp].d(G)[sp].d([m5C])[sp].d(G)[sp].d([m5C])[sp].[moe](G)p.[moe](A)[sp].[moe]([m5C])}$$$$ (last 3' nucleoside missing)”, 3 score 0-7. For “RNA1{[moe](G)[sp].[moe](G)p.[moe](T)p.d(T)[sp].d(A)[sp].d(A)[sp].d(T)[sp].d([m5C])[sp].d(T)[sp].d(T)[sp].d(T)[sp].d(A)[sp].d(T)[sp].[moe]([m5C])p.[moe](A)p.[moe](G)p.[moe](G)p.[moe](T)[sp].[moe]([m5C])}$$$$ (last 3' nucleoside missing)” the value was 0 score 0-7; for “RNA1{[moe](G)[sp].[moe](T)p.[moe](T)p.[moe](A)p.[moe](A)p.[moe](T)[sp].d([m5C])[sp].d(T)[sp].d(T)[sp].d(T)[sp].d(A)[sp].d(T)[sp].d([m5C])[sp].d(A)[sp].[moe](G)p.[moe](G)[sp].[moe](T)}$$$$ (last 3' nucleoside missing)”, 3 score 0-7; for “RNA1{[moe](G)[sp].[moe]([m5C])[sp].[moe]([m5C])[sp].[moe](T)[sp].[moe](T)[sp].d(A)[sp].d([m5C])[sp].d(T)[sp].d([m5C])[sp].d(T)[sp].d(A)[sp].d(G)[sp].d(G)[sp].d(A)[sp].d([m5C])[sp].[moe]([m5C])[sp].[moe](A)[sp].[moe](A)[sp].[moe](G)}$$$$ (last 3' nucleoside missing)”, 7 score 0-7.

“RNA1{[moe](G)[sp].[moe](G)p.[moe](T)p.[moe](T)p.[moe](A)p.[moe](A)[sp].d(T)[sp].d([m5C])[sp].d(T)[sp].d(T)[sp].d(T)[sp].d(A)[sp].d(T)[sp].d([m5C])[sp].[moe](A)p.[moe](G)[sp].[moe](G)}$$$$ (last 3' nucleoside missing)” returned a 3 h FOB score of 1.25 score 0-7. To “RNA1{[moe](G)[sp].[moe](G)p.[moe](T)p.[moe](T)p.[moe](A)p.[moe](A)p.d(T)[sp].d([m5C])[sp].d(T)[sp].d(T)[sp].d(T)[sp].d(A)[sp].d(T)[sp].d([m5C])[sp].d(A)[sp].d(G)[sp].[moe](G)p.[moe](T)[sp].[moe]([m5C])}$$$$ (last 3' nucleoside missing)” belongs 1.5 score 0-7. Turning to “RNA1{[moe](A)[sp].[moe](G)p.[moe](G)p.[moe]([m5C])p.[moe](T)p.[moe](G)[sp].d([m5C])[sp].d(G)[sp].d(G)[sp].d(T)[sp].d(T)[sp].d(G)[sp].d(T)[sp].d(T)[sp].[moe](T)p.[moe]([m5C])[sp].[moe]([m5C])}$$$$ (last 3' nucleoside missing)”, the 3 h FOB score amounted to 5.25 score 0-7. With “RNA1{[moe](T)[sp].[moe](G)p.[moe](G)p.[moe](T)p.d(T)[sp].d(A)[sp].d(A)[sp].d(T)[sp].d([m5C])[sp].d(T)[sp].d(T)[sp].d(T)[sp].d(A)[sp].d(T)[sp].[moe]([m5C])p.[moe](A)p.[moe](G)p.[moe](G)[sp].[moe](T)}$$$$ (last 3' nucleoside missing)”, the 3 h FOB score was 1 score 0-7. For “RNA1{[moe](G)[sp].[moe]([m5C])p.[moe](T)p.[moe](G)p.[moe]([m5C])p.[moe](G)[sp].d(G)[sp].d(T)[sp].d(T)[sp].d(G)[sp].d(T)[sp].d(T)[sp].d(T)[sp].d([m5C])[sp].[moe]([m5C])p.[moe]([m5C])[sp].[moe](T)}$$$$ (last 3' nucleoside missing)” the value was 5.5 score 0-7; for “RNA1{[moe]([m5C])[sp].[moe]([m5C])p.[moe](G)p.[moe](G)p.[moe]([m5C])p.d([m5C])[sp].d([m5C])[sp].d([m5C])[sp].d(T)[sp].d(A)[sp].d(G)[sp].d([m5C])[sp].d(G)[sp].d([m5C])[sp].[moe](G)p.[moe]([m5C])p.[moe](G)[sp].[moe](A)}$$$$ (last 3' nucleoside missing)”, 4.5 score 0-7; for “RNA1{[moe](T)[sp].[moe](G)p.[moe](G)p.d(T)[sp].d(T)[sp].d(A)[sp].d(A)[sp].d(T)[sp].d([m5C])[sp].d(T)[sp].d(T)[sp].d(T)[sp].d(A)[sp].[moe](T)p.[moe]([m5C])p.[moe](A)p.[moe](G)p.[moe](G)[sp].[moe](T)}$$$$ (last 3' nucleoside missing)”, 0.25 score 0-7. Substance “RNA1{[moe](T)[sp].[moe]([m5C])p.[moe](T)p.[moe](G)[sp].d(T)[sp].d([m5C])[sp].d(T)[sp].d(T)[sp].d(T)[sp].d(G)[sp].d(G)[sp].d(A)[sp].[moe](G)p.[moe]([m5C])p.[moe]([m5C])p.[moe]([m5C])[sp].[moe](A)}$$$$ (last 3' nucleoside missing)” showed a 3 h FOB score of 5.25 score 0-7.

For “RNA1{[moe](G)[sp].[moe](G)p.[moe]([m5C])p.[moe](T)[sp].d(G)[sp].d([m5C])[sp].d(G)[sp].d(G)[sp].d(T)[sp].d(T)[sp].d(G)[sp].d(T)[sp].[moe](T)p.[moe](T)p.[moe]([m5C])p.[moe]([m5C])[sp].[moe]([m5C])}$$$$ (last 3' nucleoside missing)”, the 3 h FOB score was found to be 6 score 0-7.

The substance “RNA1{[moe]([m5C])[sp].[moe]([m5C])p.[moe]([m5C])p.[moe](T)p.[moe](A)p.[moe](G)p.d([m5C])[sp].d(G)[sp].d([m5C])[sp].d(G)[sp].d([m5C])[sp].d(G)[sp].d(A)[sp].d([m5C])[sp].d(T)[sp].d([m5C])[sp].[moe]([m5C])p.[moe](T)[sp].[moe](G)}$$$$ (last 3' nucleoside missing)” gave a 3 h FOB score of 1.25 score 0-7. To “RNA1{[moe]([m5C])[sp].[moe](A)p.[moe](G)p.[moe](G)p.[moe]([m5C])p.[moe](T)[sp].d(G)[sp].d([m5C])[sp].d(G)[sp].d(G)[sp].d(T)[sp].d(T)[sp].d(G)[sp].d(T)[sp].[moe](T)p.[moe](T)[sp].[moe]([m5C])}$$$$ (last 3' nucleoside missing)” belongs 4.5 score 0-7; to “RNA1{[moe](G)[sp].[moe]([m5C])p.[moe]([m5C])p.[moe](T)p.[moe](T)p.[moe](A)p.d([m5C])[sp].d(T)[sp].d([m5C])[sp].d(T)[sp].d(A)[sp].d(G)[sp].d(G)[sp].d(A)[sp].d([m5C])[sp].d([m5C])[sp].[moe](A)p.[moe](A)[sp].[moe](G)}$$$$ (last 3' nucleoside missing)”, 2.25 score 0-7; to “RNA1{[moe](G)[sp].[moe](T)p.[moe](T)p.[moe](A)[sp].d(A)[sp].d(T)[sp].d([m5C])[sp].d(T)[sp].d(T)[sp].d(T)[sp].d(A)[sp].d(T)[sp].[moe]([m5C])p.[moe](A)p.[moe](G)p.[moe](G)[sp].[moe](T)}$$$$ (last 3' nucleoside missing)”, 1 score 0-7.

Substance “RNA1{[moe](T)[sp].[moe]([m5C])p.[moe](T)p.[moe](G)p.[moe](T)p.[moe]([m5C])p.[moe](T)[sp].d(T)[sp].d(T)[sp].d(G)[sp].d(G)[sp].d(A)[sp].d(G)[sp].d([m5C])[sp].d([m5C])[sp].[moe]([m5C])[sp].[moe](A)}$$$$ (last 3' nucleoside missing)” returned a 3 h FOB score of 6.25 score 0-7. To “RNA1{[moe](G)[sp].[moe](G)p.[moe]([m5C])p.[moe](T)p.[moe](G)p.d([m5C])[sp].d(G)[sp].d(G)[sp].d(T)[sp].d(T)[sp].d(G)[sp].d(T)[sp].d(T)[sp].d(T)[sp].[moe]([m5C])p.[moe]([m5C])p.[moe]([m5C])[sp].[moe](T)}$$$$ (last 3' nucleoside missing)” belongs 5.5 score 0-7; to “RNA1{[moe](G)[sp].[moe](G)p.[moe](T)p.[moe](T)[sp].d(A)[sp].d(A)[sp].d(T)[sp].d([m5C])[sp].d(T)[sp].d(T)[sp].d(T)[sp].d(A)[sp].[moe](T)p.[moe]([m5C])p.[moe](A)p.[moe](G)[sp].[moe](G)}$$$$ (last 3' nucleoside missing)”, 1 score 0-7. Regarding “RNA1{[moe](A)[sp].[moe](G)p.[moe](G)p.[moe]([m5C])p.d(T)[sp].d(G)[sp].d([m5C])[sp].d(G)[sp].d(G)[sp].d(T)[sp].d(T)[sp].d(G)[sp].d(T)[sp].[moe](T)p.[moe](T)p.[moe]([m5C])p.[moe]([m5C])[sp].[moe]([m5C])}$$$$ (last 3' nucleoside missing)”, the 3 h FOB score amounted to 6.5 score 0-7. To “RNA1{[moe](G)[sp].[moe](G)p.[moe]([m5C])p.[moe]([m5C])p.[moe]([m5C])p.[moe]([m5C])[sp].d(T)[sp].d(A)[sp].d(G)[sp].d([m5C])[sp].d(G)[sp].d([m5C])[sp].d(G)[sp].d([m5C])[sp].[moe](G)p.[moe](A)[sp].[moe]([m5C])}$$$$ (last 3' nucleoside missing)” belongs 3.25 score 0-7.
